Experimental data reported in publication PMC12035797, “Peptidomimetics Activating the Proteasome: A New Perspective for Parkinson’s Treatment” (Journal of Medicinal Chemistry, 2025).

Key:
[1] = test system: human 20S proteasome (Tau-441 substrate); assay: Tau-441 degradation by h20S (SDS-PAGE); type: biochemical; settings: 10 μM modulator, 37 °C, 1.5 h
Description: The effectiveness of the compounds has also been examined by using proteins as substrates. By means of SDS-PAGE electrophoresis, we checked the extent to which model proteins were digested by the 20S proteasome alone and after its stimulation by 10 μM modulators. […] After incubation with the enzyme in the presence of each modulator, less than 40% of synuclein remained. […] The experiment was performed as it was described.[36] Briefly, α-synuclein (rPeptide, […], USA) and Tau-441 (Novus Biologicals, Centennial, CO, USA) were dissolved in 20 mM HEPES buffer (pH 7.4) and mixed with a human 20S proteasome. Samples were incubated at 37 °C for 1.5 h, after which the reaction was terminated by adding 4× Laemmli buffer. The levels of undigested proteins were evaluated by SDS-PAGE. The band intensities of proteins incubated with […] in the presence of a modulator were compared to those of proteins incubated with the enzyme alone, which were set as 100%. Three independent experiments were performed for each protein. The results are presented as the means ± SD. One-way ANOVA with Tukey's post-hoc test was used to determine statistical significance.

[2] = PAMPA, blood–brain barrier mimic; type: in vitro ADME; settings: 500 μM, 37 °C, 22 h
From the text: In neurodegenerative diseases, proteins prone to aggregation accumulate in the neuronal cells. Therefore, a necessary feature of potential drugs is not only permeability across the cell membrane but also the ability to cross the blood-brain barrier (BBB). To preliminarily investigate this feature, we performed parallel artificial membrane permeation assays (PAMPA) including as positive controls propranolol and Tat47-57, known for their ability to penetrate the blood-brain barrier. Dopamine hydrobromide was included as a negative control. For comparison, we also tested compound 1a, which is devoid of a CPP sequence. […] The PAMPA was performed as previously described.[21] Briefly, a 2% solution of porcine brain lipid membrane (PBL; Avanti Polar Lipids Inc., Alabaster, AL, USA) in anhydrous dodecane was used as a mimic of the blood-brain barrier. Propranolol hydrochloride (Merck, Darmstadt, Germany) and Tat47-57 (synthesized in-house) served as positive controls, while dopamine hydrobromide (Merck, Darmstadt, Germany) was used as a negative control. Stock solutions of the tested compounds and controls were prepared at a concentration of 10 mM in deionized water and then diluted to 500 μM using 0.1 M PBS containing 5% DMSO. The donor-acceptor plate assembly was incubated at 37 °C while being shaken at 250 rpm for 22 h. Absorbance at 290 nm was measured for propranolol using an Infinite […] plate reader (Infinite […] plate reader, Tecan). For the other samples, fluorescence measurements were performed after the compounds were reacted with 0.02% fluorescamine. The rate of passive diffusion was calculated as the linear velocity of permeation (Pe). The data represent an average of three independent biological replicates.

[3] = test system: hippocampal neurons containing Lewy body-like pS129-αsyn aggregates; assay: pS129-α-synuclein aggregates in PFF-treated hippocampal neurons; type: cell-based, mouse; settings: 7 days after PFFs
From the text: Encouraged by the results received, we tested the ability of the modulator-CPP constructs to increase α-synuclein degradation in a cell model using primary mouse neuronal cells. The presence of Lewy-like neurites and Lewy-like bodies containing aggregated α-synuclein with phosphorylated serine 129 (pS129-αsyn) is a characteristic feature of the brains of people with Parkinson’s disease. To mimic these aggregations, we introduced a solution of preformed fibrils (PFFs) to the media of neuronal cells, which led to the induction of α-synuclein phosphorylation and its aggregation in neurons isolated from mouse embryos. PFFs are purified, prion-like fibrils of α-synuclein that are produced by expressing a recombinant monomeric protein in bacteria. Seven days after PFFs are introduced to the cells, large aggregates are visible in the cell soma, often next to the cell nucleus. We added the PFF solution to the hippocampal cells, and after an hour of incubation, we introduced solutions of the activator. After 7 days, we immunostained neuronal cells using a monoclonal antibody against the NeuN protein, which is commonly used in neuronal differentiation studies to assess their functional status. Additionally, we stained the nuclei of all incubated cells with DAPI. […] It is noteworthy that the number of cells in samples with activators was slightly higher (Figure 5), which may indicate neuroprotective properties. […] The main tool for monitoring this process was an antibody against pS129-αsyn. […] The fluorescent microscopy images (Figure 5) show the difference between the amounts of aggregated protein in the control sample and in the samples containing activators at different concentrations.
Cells were isolated from pregnant mouse embryos at E16.0 and plated on precoated with poly-L-lysine wells of 96-well plates (PerkinElmer/Revvity Inc., Waltham, MA, USA) at 25,000 cells/well. The final medium volume was 150 μL/well. Cells were incubated at 37 °C, 5% CO2. […]

C[C@@H](O)[C@H](NC(=O)[C@H](Cc1ccccc1)NC(=O)[C@H](Cc1ccc(O)cc1)NC(=O)CN(CCCCN)C(=O)[C@H](CCCNC(=N)N)NC(=O)[C@H](CCCNC(=N)N)NC(=O)[C@H](CCCNC(=N)N)NC(=O)[C@H](CCC(N)=O)NC(=O)[C@H](CCCNC(=N)N)NC(=O)[C@H](CCCNC(=N)N)NC(=O)[C@H](CCCCN)NC(=O)[C@H](CCCCN)NC(=O)[C@@H](N)CCCNC(=N)N)C(=O)NCC(=O)N[C@@H](CO)C(=O)N[C@@H](CCCCN)C(=O)N[C@@H](CC(=O)O)C(=O)N[C@@H](Cc1c[nH]c2ccccc12)C(=O)N[C@@H](CCCNC(=N)N)C(=O)N[C@@H](CO)C(=O)N[C@@H](Cc1ccc(O)cc1)C(=O)N[C@@H](Cc1ccc(O)cc1)C(=O)N[C@@H](CO)C(=O)O [1f]
Tau protein digested by h20S [1]: more than 90% | permeability across artificial BBB membrane, PAMPA [2]: had the ability to penetrate the artificial membrane mimicking the BBB | effect on hippocampal cells containing α-synuclein aggregates ([3]; 0.5 and 2.5 μM): effectively reduced the number of hippocampal cells containing α-synuclein | reduction of the number of aggregates formed ([3]; very low concentration): 50%
